Data from patent US20250011332A1, “PYRAZOLO FUSED RING COMPOUND AND USE THEREOF” (SOTER BIOPHARMA PTE. LTD., priority 2021, published 2025).

Key:
Format in all cases: biochemical
JAK1(h) = JAK1(h) (Homo sapiens (Human), UniProt P23458); assay: JAK1 kinase activity test in vitro ([γ-33P]-ATP, Eurofins)
Procedure: (§1) Recombinant human JAK1, JAK2, JAK3 and Tyk2 […], main instruments and reagents are all provided by the British company Eurofins
(§2) JAK2, JAK3 and TYK2 dilution: 20 mM 3-(N-morpholine)propanesulfonic acid (MOPS), 1 mM EDTA, 0.01% Brij-35.5% glycerol, 0.1% β-mercaptoethanol, 1 mg/mL BSA; JAK1 dilution: 20 mM TRIS, 0.2 mM EDTA, 0.1% β-mercaptoethanol, 0.01% Brij-35.5% glycerol. All compounds were prepared as 100% DMSO solutions and brought to 50 times the final assay concentration. The test compound was subjected to 3-fold serial concentration dilution with a final concentration from 10 μM to 0.001 μM of a total of 9 concentrations. The content of DMSO in the detection reaction was 2%. A working stock solution of this compound was added to the assay well as the first component of the reaction, and then the remaining components were added according to the protocol detailed in the following determination.
JAK1(h) was incubated with 20 mM Tris/HCl pH 7.5, 0.2 mM EDTA, 500 μM MGEEPLYWSFPAKKK (SEQ ID NO: 1), 10 mM magnesium acetate and [γ-^33P]-ATP (activity and concentration were determined as required). The reaction was started by adding the Mg/ATP mixture, and after incubation at room temperature for 40 min, the reaction was terminated by adding 0.5% phosphoric acid. Then 10 μL of the reaction product was spotted on a P30 filter pad which was washed three times with 0.425% phosphoric acid and once with methanol within 4 min, dried, and subjected to scintillation counting.
(§3) IC50 results were analyzed by XLFIT5 (205 formula) of IDBS Company.

TYK2(h) = TYK2(h) (Homo sapiens (Human), UniProt P29597); assay: TYK2 kinase activity test in vitro ([γ-33P]-ATP, Eurofins)
Sequence of TYK2(h) (P29597 whole entry): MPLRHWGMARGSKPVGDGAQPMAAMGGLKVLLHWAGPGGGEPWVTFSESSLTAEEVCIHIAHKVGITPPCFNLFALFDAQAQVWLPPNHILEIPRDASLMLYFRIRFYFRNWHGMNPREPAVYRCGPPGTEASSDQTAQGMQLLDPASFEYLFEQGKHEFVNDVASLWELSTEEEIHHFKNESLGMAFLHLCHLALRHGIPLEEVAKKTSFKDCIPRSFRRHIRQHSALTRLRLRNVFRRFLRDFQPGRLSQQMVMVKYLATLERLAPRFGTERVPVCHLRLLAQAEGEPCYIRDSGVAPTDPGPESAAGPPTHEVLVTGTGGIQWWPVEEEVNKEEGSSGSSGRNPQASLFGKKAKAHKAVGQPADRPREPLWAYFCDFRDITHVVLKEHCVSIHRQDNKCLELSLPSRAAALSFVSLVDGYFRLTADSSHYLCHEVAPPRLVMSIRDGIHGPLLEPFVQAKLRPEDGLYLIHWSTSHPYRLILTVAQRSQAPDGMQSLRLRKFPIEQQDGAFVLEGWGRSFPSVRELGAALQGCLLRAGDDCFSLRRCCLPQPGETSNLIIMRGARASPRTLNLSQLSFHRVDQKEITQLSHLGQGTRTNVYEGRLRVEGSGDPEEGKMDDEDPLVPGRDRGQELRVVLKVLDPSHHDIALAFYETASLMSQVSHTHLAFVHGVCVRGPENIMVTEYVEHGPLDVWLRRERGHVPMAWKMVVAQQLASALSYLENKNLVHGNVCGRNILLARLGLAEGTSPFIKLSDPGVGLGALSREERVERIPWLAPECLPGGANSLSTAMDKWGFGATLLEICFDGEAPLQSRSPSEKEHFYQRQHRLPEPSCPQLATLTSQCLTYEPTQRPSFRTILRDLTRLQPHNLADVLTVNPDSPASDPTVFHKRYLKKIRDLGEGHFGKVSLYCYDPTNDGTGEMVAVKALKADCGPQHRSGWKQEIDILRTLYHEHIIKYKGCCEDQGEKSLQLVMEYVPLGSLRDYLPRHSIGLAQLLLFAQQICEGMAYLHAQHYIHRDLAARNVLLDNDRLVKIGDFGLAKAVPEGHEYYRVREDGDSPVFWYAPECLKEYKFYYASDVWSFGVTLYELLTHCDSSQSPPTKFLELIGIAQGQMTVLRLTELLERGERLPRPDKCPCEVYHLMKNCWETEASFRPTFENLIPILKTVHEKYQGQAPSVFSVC
Procedure: as §1, §2
(§4) TYK2(h) was incubated with 8 mM MOPS pH 7.0, 0.2 mM EDTA, 250 μM GGMEDIYFEFMGGKKK (SEQ ID NO: 4), 10 mM magnesium acetate, and [γ-^33P]-ATP (activity and concentration were determined as required). The reaction was started by adding the Mg/ATP mixture, and after incubation at room temperature for 40 min, the reaction was terminated by adding 0.5% phosphoric acid. Then 10 μL of the reaction product was spotted on a P30 filter pad which was washed three times with 0.425% phosphoric acid and once with methanol within 4 min, dried, and subjected to scintillation counting.
as §3

JAK2(h) = JAK2(h) (Homo sapiens (Human), UniProt O60674); assay: JAK2 kinase activity test in vitro ([γ-33P]-ATP, Eurofins)
Sequence of JAK2(h) (O60674 whole entry): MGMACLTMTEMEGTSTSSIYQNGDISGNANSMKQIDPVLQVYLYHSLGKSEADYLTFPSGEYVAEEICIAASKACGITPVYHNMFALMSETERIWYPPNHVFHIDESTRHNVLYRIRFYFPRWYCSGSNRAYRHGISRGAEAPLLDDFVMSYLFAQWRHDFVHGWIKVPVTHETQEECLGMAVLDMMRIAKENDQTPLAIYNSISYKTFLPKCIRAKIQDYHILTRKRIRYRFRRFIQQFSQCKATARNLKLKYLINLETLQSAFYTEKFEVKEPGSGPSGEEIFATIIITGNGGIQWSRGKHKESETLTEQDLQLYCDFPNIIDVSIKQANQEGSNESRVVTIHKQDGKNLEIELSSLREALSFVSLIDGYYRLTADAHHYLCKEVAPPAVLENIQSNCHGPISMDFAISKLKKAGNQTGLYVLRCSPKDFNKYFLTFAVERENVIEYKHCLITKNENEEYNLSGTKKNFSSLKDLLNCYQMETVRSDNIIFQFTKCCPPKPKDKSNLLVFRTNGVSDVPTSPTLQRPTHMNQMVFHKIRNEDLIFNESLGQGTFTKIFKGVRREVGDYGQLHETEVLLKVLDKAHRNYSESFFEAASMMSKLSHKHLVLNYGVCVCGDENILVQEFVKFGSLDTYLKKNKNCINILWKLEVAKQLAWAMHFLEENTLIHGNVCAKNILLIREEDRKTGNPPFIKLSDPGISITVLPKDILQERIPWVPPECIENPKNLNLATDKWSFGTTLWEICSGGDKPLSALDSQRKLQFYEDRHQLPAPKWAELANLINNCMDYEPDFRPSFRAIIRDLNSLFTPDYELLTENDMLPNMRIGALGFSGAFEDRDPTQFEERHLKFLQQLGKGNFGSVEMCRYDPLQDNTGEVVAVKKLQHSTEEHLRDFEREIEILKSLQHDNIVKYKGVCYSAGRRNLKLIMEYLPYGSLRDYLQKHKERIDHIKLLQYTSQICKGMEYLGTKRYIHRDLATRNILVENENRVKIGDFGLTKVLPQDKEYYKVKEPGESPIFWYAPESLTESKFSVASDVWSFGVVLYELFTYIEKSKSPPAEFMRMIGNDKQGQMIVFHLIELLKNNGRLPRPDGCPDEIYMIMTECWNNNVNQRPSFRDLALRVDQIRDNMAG
Procedure: as §1, §2
as §4, with “JAK2(h)” for “TYK2(h)”, “100” for “250”, “GGMEDIYFEFMGGKKK” left out, “2),” for “4),”
as §3

JAK3(h) = JAK3(h) (Homo sapiens (Human), UniProt P52333); assay: JAK3 kinase activity test in vitro ([γ-33P]-ATP, Eurofins)
Sequence of JAK3(h) (P52333 whole entry): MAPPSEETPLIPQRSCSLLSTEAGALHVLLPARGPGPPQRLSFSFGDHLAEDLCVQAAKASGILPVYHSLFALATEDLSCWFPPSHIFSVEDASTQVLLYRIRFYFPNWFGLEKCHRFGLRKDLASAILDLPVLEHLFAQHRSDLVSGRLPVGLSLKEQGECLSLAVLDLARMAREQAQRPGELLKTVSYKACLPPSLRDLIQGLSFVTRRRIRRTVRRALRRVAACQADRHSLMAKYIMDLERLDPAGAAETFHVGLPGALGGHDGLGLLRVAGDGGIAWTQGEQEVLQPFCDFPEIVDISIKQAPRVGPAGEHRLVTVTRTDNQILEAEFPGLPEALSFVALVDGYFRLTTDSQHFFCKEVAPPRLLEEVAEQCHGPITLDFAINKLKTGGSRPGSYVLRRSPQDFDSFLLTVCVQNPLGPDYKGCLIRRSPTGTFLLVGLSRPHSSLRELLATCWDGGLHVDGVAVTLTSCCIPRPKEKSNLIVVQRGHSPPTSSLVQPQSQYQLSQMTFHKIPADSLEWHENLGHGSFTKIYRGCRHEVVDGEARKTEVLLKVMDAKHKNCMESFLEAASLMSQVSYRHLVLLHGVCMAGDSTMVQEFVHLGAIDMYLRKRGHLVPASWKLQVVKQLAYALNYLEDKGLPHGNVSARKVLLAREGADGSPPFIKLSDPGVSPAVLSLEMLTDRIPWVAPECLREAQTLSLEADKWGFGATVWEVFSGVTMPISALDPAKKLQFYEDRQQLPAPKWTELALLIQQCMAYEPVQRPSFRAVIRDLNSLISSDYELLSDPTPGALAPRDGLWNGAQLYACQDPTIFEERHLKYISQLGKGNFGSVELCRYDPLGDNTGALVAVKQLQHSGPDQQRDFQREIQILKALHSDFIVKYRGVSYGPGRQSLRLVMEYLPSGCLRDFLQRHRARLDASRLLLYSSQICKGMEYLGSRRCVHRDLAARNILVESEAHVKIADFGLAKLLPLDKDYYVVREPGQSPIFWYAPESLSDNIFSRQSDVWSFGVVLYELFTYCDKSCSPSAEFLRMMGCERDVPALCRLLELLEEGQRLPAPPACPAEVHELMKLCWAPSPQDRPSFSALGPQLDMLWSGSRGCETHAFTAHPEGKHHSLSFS
Procedure: as §1, §2
as §4, with “JAK3(h)” for “TYK2(h)”, “500” for “250”, “GGEEEEYFELVKKKK” for “GGMEDIYFEFMGGKKK”, “3),” for “4),”
as §3

Sequence of JAK1(h) (P23458 whole entry): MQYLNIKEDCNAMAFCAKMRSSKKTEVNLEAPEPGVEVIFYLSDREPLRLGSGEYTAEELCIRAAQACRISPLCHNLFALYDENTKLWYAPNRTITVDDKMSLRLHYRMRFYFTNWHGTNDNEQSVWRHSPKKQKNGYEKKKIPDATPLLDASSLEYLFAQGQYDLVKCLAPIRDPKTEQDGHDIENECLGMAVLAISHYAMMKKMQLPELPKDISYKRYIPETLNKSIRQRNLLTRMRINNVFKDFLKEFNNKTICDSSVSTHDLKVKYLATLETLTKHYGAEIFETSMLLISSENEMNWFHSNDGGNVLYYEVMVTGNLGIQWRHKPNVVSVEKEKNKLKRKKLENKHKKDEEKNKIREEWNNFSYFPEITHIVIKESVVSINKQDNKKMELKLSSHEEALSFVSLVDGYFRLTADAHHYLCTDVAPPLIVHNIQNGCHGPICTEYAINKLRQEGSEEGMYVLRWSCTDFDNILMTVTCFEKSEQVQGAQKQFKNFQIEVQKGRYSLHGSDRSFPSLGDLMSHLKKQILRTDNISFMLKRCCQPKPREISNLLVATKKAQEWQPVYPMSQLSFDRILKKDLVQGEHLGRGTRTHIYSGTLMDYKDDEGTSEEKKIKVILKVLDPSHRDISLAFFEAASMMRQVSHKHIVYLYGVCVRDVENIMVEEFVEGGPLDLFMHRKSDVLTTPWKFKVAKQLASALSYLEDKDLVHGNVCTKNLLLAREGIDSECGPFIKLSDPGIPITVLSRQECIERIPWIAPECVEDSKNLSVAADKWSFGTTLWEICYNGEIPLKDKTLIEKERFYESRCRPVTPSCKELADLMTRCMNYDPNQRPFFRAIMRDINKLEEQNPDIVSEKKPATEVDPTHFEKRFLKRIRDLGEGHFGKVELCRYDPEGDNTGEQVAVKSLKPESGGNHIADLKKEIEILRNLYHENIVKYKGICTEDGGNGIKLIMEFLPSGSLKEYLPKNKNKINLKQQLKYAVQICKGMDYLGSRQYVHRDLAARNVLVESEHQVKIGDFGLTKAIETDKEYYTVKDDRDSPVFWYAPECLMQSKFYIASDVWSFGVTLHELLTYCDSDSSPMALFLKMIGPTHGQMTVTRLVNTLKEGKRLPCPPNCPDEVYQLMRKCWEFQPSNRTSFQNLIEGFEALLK

Row | SMILES | IC50 (JAK1(h)) [nM] | IC50 (TYK2(h)) [nM] | IC50 (JAK2(h)) [nM] | IC50 (JAK3(h)) [nM]
1 | Cn1ccc(-c2cn3nccc3c(-c3cnn(C4(CC#N)CC5(CN(C#N)C5)C4)c3)n2)n1 [Compound 7] | 2910 | 228 |  | 
2 | Cn1ccc(-c2cn3nccc3c(-c3cnn(C4(CC#N)CC5C(C#N)C5C4)c3)n2)n1 (stereo not shown) [Compound 8] | 13.7 | 6.43 | 1.13 | 22.8
3 | Cn1ccc(-c2cn3nccc3c(-c3cnn(C4(CC#N)CC5(CCN(C#N)CC5)C4)c3)n2)n1 [Compound 9] | 128 | 2.81 | 5.16 | 209
4 | Cn1nc(-c2cn3nccc3c(-c3cnn([C@]4(CC#N)CC5(C[C@H](C#N)C5)C4)c3)n2)cc1N (stereo partly shown) [Compound 14] | 51 | 0.8 | 6 | 296
5 | Cn1cc(-c2cc(-c3cnn([C@]4(CC#N)CC5(C[C@H](C#N)C5)C4)c3)c3ccnn3c2)cn1 (stereo partly shown) [Compound 16] | 42 | 2 | 6 | 67
6 | N#CC[C@]1(n2cc(-c3nc(-c4cc(N)[nH]n4)cn4nccc34)cn2)CC2(C[C@@H](C#N)C2)C1 (stereo partly shown) [Compound 21] | 5 | 0.7 | 3 | 99
